Consider twelve compounds from patent publication US12604900B2, “Penflufen as a wood preservative against wood- destroying basidiomy cetes” (LANXESS Deutschland GmbH, priority 2010, dated 2026).

Usually MIC stands for the smallest concentration in the dilution series that meets the test's criterion for growth inhibition. Usually inhibition stands for the change of the read-out against control, counted positive when it falls. Low values mean a weak effect, high ones a strong effect.

Like-named read-outs stand apart in the source and are kept apart here.

Assay [1] deals with Stereum sanguinolentum. In words: Synergism test (MIC of radial hyphae growth, SI by Kull). The assay is classed as cell-based. The conditions noted are these: 2.4 penflufen and tebuconazole, read-out: MIC against Stereum sanguinolentum (ppm). As to the method:
(§1) Mycelium pieces were punched out of a colony of the wood-destroying fungus in question and incubated on a malt extract/peptone-containing nutrient agar at 26° C. The growth of the hyphae with and without active compound was compared. The minimum inhibitory concentration (MIC) stated was the concentration at which the radial hyphae growth was suppressed completely.
(§2) The synergism was determined using the method described by Kull et al. (F. C. Kull, P. C. Eismann, H. D. Sylvestrowicz, R. L. Mayer, Applied Microbiology 1961, 9, 538-541).

The subject of assay [2] is Poria placenta. The assay is described as above. The assay is classed as cell-based. As to the method:
as §1, §2

Assay [3] deals with Coniophora puteana. The assay is described as above. The assay is classed as cell-based. The procedure:
as §1, §2

The test system of assay [4] is Coriolus versicolor. Described as above. In kind it is cell-based. As to conditions: Trametes versicolor. As to the method:
as §1, §2

In assay [5] the test system is Poria placenta. In words: Inhibition test with giant colonies of wood-destroying basidiomycetes. The assay is classed as cell-based. As to conditions: 168 h; 1 ppm active compound, agar, 26° C., about 1 week. The procedure: (§3) Mycelium pieces were punched out of colonies of Coniophora puteana, Poria placenta, Lentinus tigrinus, Coriolus versicolor and Gloeophyllum trabeum and incubated on an agar nutrient soil at 26° C. The inhibition of the growth of the hyphae on active compound-comprising nutrient soil was compared to the longitudinal growth without addition of active compound and rated as inhibition in percent (incubation time: about 1 week, depending on the fungal growth of the comparative sample without active compound).

The test system of assay [6] is Gloeophyllum trabeum. The description is as above. In kind it is cell-based. As to conditions: 168 h, 1 ppm active compound, agar, 26° C., about 1 week. As to the method: as §3
The subject of assay [7] is Coniophora puteana. Described as above. In kind it is cell-based. As to conditions: 168 h, 1 ppm active compound, agar, 26° C., about 1 week. As to the method: as §3
In assay [8] the test system is Coriolus versicolor. The description is as above. The assay is classed as cell-based. The conditions noted are these: Trametes versicolor, 168 h; 1 ppm active compound, agar, 26° C., about 1 week. The procedure: as §3
Assay [9] has as its system Lentinus tigrinus. The description is as above. The assay is classed as cell-based. The conditions noted are these: 168 h, 1 ppm active compound, agar, 26° C., about 1 week. The procedure:
as §3

Assay [10] deals with Lentinus tigrinus. Kind of assay: Synergism test (MIC of radial hyphae growth, SI by Kull). In kind it is cell-based. As to conditions: read-out: MIC (ppm) Lentinus tigrinus. The procedure:
as §1, §2

The test system of assay [11] is Poria placenta. Kind of assay: Activity test analogously to EN113 on drenched pine specimens. As to conditions: for Loss of mass [%]: pine, 6 weeks, mean of 6 specimens (untreated: 20). The procedure:
(§4) Penflufen (I) was tested analogously to the EN113 standard test for activity against wood-destroying fungi. In contrast to the standard test, smaller pieces of wood were used and the pieces of wood were exposed to attack by the fungi for a shorter period of time.
(§5) To this end, dried test specimen (25×15×4 mm) made of pine (Pinus sylvestris) were in each case vacuum-drenched with solutions of penflufen (I) in toluene. From the concentration of penflufen (I) in the drench solution and the uptake of the drench solution into the test specimen, the amount of active compound taken up by the test specimen (retention) was calculated. The test specimens were dried and then weighed. To prevent falsifying colonisation by foreign pathogens, the test specimen were sterilised with y rays.
The test specimen were brought into contact with the wood-destroying organism Poria placenta and stored for 6 weeks. The test pieces of wood were then cleaned, dried and weighed. This was used to calculate the loss of mass. For each retention, the mean of 6 test specimens was determined.

Assay [12] concerns Coniophora puteana. Described as above. The conditions noted are these: for Loss of mass [%]: pine, 6 weeks, mean of 6 specimens (untreated: 24). The procedure:
as §4, §5
The test specimens were brought into contact with the wood-destroying organism Coniophora puteana and stored for 6 weeks. The test pieces of wood were then cleaned, dried and weighed. This was used to calculate the loss of mass. For each retention, the mean of 6 test specimens was determined.

In assay [13] the test system is Gloeophyllum trabeum. Kind of assay: Synergism test (MIC of radial hyphae growth, SI by Kull). In kind it is cell-based. The conditions noted are these: 2.3 penflufen and copper(II) oxide, read-out: MIC against Gloeophyllum trabeum (ppm). The procedure: Mycelium pieces were punched out of a colony of the wood-destroying fungus in question and incubated on a malt extract/peptone-containing nutrient agar at 26° C. […] The minimum inhibitory concentration (MIC) stated was the concentration at which the radial hyphae growth was suppressed completely.

[14] abbreviates: 2.5 penflufen and propiconazole, read-out: MIC against Coniophora puteana (ppm).
The mark [15] stands for this setting: 2.6 penflufen and permethrin, read-out: MIC against Poria placenta (ppm).
[16] abbreviates: 2.9 penflufen and bifenthrin, read-out: MIC against Coriolus versicolor (ppm).
Where [17] appears, read: 2.1 penflufen and thiabendazole, malt extract/peptone agar 26° C., read-out: MIC against Coriolus versicolor (ppm).
[18] abbreviates: 2.2 penflufen and fenpropimorph, read-out: MIC (ppm) Coniophora puteana.
[19] abbreviates: 2.2 penflufen and fenpropimorph.
[20] abbreviates: result in words, EN113-like test.
Setting [21] is: retention of penflufen 50 g/m^3.

On to `CC(C)(C)C(O)(CCc1ccc(Cl)cc1)Cn1cncn1` (stereo not shown) [tebuconazole, reference compound], for which the MIC in [1] worked out at 6 µg/mL.
`CCOc1ccc(C(C)(C)COCc2cccc(Oc3ccccc3)c2)cc1` [etofenprox, reference compound]: the MIC in assay [2] (2.7 penflufen and etofenprox, read-out: MIC against Poria placenta (ppm)) is over 100 µg/mL.
For `CCCC1COC(Cn2cncn2)(c2ccc(Cl)cc2Cl)O1` (stereo not shown) [propiconazole, reference compound], in assay [3] (setting [14]), the MIC worked out at 3 µg/mL.
Take `CC1(C)C(C=C(Cl)Cl)C1C(=O)OCc1cccc(Oc2ccccc2)c1` (stereo not shown) [permethrin, reference compound]: in assay [2] (setting [15]), the MIC was over 100 µg/mL.
Consider `Cc1c(COC(=O)[C@@H]2[C@H](/C=C(\Cl)C(F)(F)F)C2(C)C)cccc1-c1ccccc1` (racemic) [bifenthrin, reference compound], for which the MIC in [4] (setting [16]) was 60 µg/mL.
`CC1(C)C(C=C(Cl)Cl)C1C(=O)OC(C#N)c1cccc(Oc2ccccc2)c1` (stereo not shown) [cypermethrin, reference compound]: the minimum inhibitory concentration (MIC) in assay [2] (read-out: MIC (ppm) Poria placenta) and in [4] (read-out: MIC (ppm) Coriolus versicolor) was over 100 µg/mL each time.
As for `C=C(c1ccccc1NC(=O)c1c(C)nn(C)c1F)C(C)C` [III], the inhibition at 1 ppm in [5] is 45%; in assay [6], 18%; in assay [7], 25%; in [8], 78%; in assay [9], 37%.
Consider `CCCN(CCOc1c(Cl)cc(Cl)cc1Cl)C(=O)n1ccnc1` [prochloraz, reference compound], for which the MIC is over 30 µg/mL in [3] (read-out: MIC (ppm) Coniophora puteana) and 20 µg/mL in assay [10].
`c1ccc2[nH]c(-c3cscn3)nc2c1` [thiabendazole, reference compound]: the MIC in assay [4] (setting [17]) is 3 µg/mL.
For `CC(Cc1ccc(C(C)(C)C)cc1)CN1C[C@@H](C)O[C@@H](C)C1` (stereo partly shown) [fenpropimorph, reference compound], the MIC in [3] (setting [18]) and in assay [10] (setting [19]) was 30 µg/mL in each case.
With `Cc1nn(C)c(F)c1C(=O)Nc1ccccc1C(C)CC(C)C` (stereo not shown) [penflufen], the “activity against the wood-destroying fungus Poria placenta” value in assay [11] (setting [20]) was “very good activity”. Moreover, the “Loss of mass [%]” value in assay [11] (setting [21]), in assay [11] (retention of penflufen 102 g/m^3), in assay [12] (setting [21]) and in assay [12] (retention of penflufen 103 g/m^3) was 0% throughout. Besides, the inhibition at 1 ppm in assay [5], in assay [6], in assay [7], in assay [8] and in [9] was 100% in each case. The “activity against the wood-destroying fungus Coniophora puteana” value in [12] (setting [20]) is recorded as “very good activity”. Moreover, the MIC in [2] (2.10 penflufen and cypermethrin, read-out: MIC (ppm) Poria placenta) was 0.1 µg/mL; in [2] (setting [15]), 0.1 µg/mL; in [1], 3 µg/mL; in [3] (setting [18]), 1 µg/mL; in assay [3] (setting [14]) it was 3 µg/mL; in [3] (2.8 penflufen and prochloraz, read-out: MIC (ppm) Coniophora puteana) it was 3 µg/mL. Also, the MIC was found to be 0.1 µg/mL in assay [4] (2.10 penflufen and cypermethrin, read-out: MIC (ppm) Coriolus versicolor); 0.3 µg/mL in [4] (setting [17]); 0.1 µg/mL in assay [4] (setting [16]); 0.5 µg/mL in assay [10] (setting [19]); 0.3 µg/mL in [10] (2.8 penflufen and prochloraz); 0.3 µg/mL in assay [13]. The “MIC against Poria placenta (ppm)” value in [2] (2.7 penflufen and etofenprox) is 0.1 ppm.
Regarding `CCCC(C)c1ccccc1NC(=O)c1c(C)nn(C)c1F` (stereo not shown) [II], the inhibition at 1 ppm in assay [5] was 3%; in [6], 11%; in assay [7], 12%; in assay [8], 15%; in assay [9], 17%.
